According to patent US20200017496A1 (priority 2017, published 2020):
Like-named read-outs stand apart in the source and are kept apart here.

Test system: Klebsiella pneumoniae (KPN) isolates
Assay: MIC of compounds alone and combined with antibacterials, broth microdilution (CLSI)
Assay type: cell-based
Conditions: for MIC: Klebsiella pneumoniae, read-out: MIC
Procedure, shortened: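 Compound MIC, and antibacterial MIC at each fixed compound level, taken by visual inspection as lowest concentration stopping growth. Inoculum: log-phase bacteria, final 5·10^5 CFU/mL, cation-adjusted Mueller-Hinton broth; 16-20 h, 35° C, ambient air.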

C=CC1=C(C(=O)O)N2C(=O)[C@@H](NC(=O)/C(=N\OCC(=O)O)c3csc(N)n3)[C@H]2SC1 [FIX, Cefixime]
MIC ATB in combination: >128 µg/mL
MIC ATB in combination (KPN 6299, AF1 @ 4 μg/mL): <=0.25 μg/mL
MIC ATB in combination (KPN 6299, AF1 @ 8 μg/mL): <=0.25 μg/mL
MIC ATB in combination (KPN 110376, AF1 @ 4 μg/mL): 0.125 µg/mL
MIC ATB in combination (KPN 110376, AF1 @ 8 μg/mL): 0.125 µg/mL
MIC ATB in combination (KPN 131119, AF1 @ 4 μg/mL): <=0.25 μg/mL
MIC ATB in combination (KPN 131119, AF1 @ 8 μg/mL): <=0.25 μg/mL
MIC ATB in combination (KPN 140513, AF1 @ 4 μg/mL): 4 µg/mL
MIC ATB in combination (KPN 140513, AF1 @ 8 μg/mL): 0.5 µg/mL
MIC ATB in combination (KPN 160143, AF1 @ 4 μg/mL): <=0.25 μg/mL
MIC ATB in combination (KPN 160143, AF1 @ 8 μg/mL): <=0.25 μg/mL
MIC ATB in combination (KPN 190128, AF1 @ 4 μg/mL): 0.5 µg/mL
MIC ATB in combination (KPN 190128, AF1 @ 8 μg/mL): <=0.25 μg/mL
MIC ATB in combination (KPN 190270, AF1 @ 4 μg/mL): 0.5 µg/mL
MIC ATB in combination (KPN 190270, AF1 @ 8 μg/mL): <=0.25 μg/mL
MIC ATB in combination (KPN 190425, AF1 @ 4 μg/mL): <=0.25 μg/mL
MIC ATB in combination (KPN 190425, AF1 @ 8 μg/mL): <=0.25 μg/mL
MIC ATB in combination (KPN 190551, AF1 @ 4 μg/mL): <=0.25 μg/mL
MIC ATB in combination (KPN 190551, AF1 @ 8 μg/mL): <=0.25 μg/mL
MIC ATB in combination (KPN 200047, AF1 @ 4 μg/mL): <=0.25 μg/mL
MIC ATB in combination (KPN 200047, AF1 @ 8 μg/mL): <=0.25 μg/mL
MIC ATB in combination (KPN 200327, AF1 @ 4 μg/mL): <=0.25 μg/mL
MIC ATB in combination (KPN 200327, AF1 @ 8 μg/mL): <=0.25 μg/mL
MIC ATB in combination (KPN 260251, AF1 @ 4 μg/mL): <=0.25 μg/mL
MIC ATB in combination (KPN 260251, AF1 @ 8 μg/mL): 0.5 µg/mL
MIC ATB in combination (KPN 260252, AF1 @ 4 μg/mL): 8 µg/mL
MIC ATB in combination (KPN 260252, AF1 @ 8 μg/mL): 4 µg/mL
MIC ATB in combination (KPN 260376, AF1 @ 4 μg/mL): <=0.25 μg/mL
MIC ATB in combination (KPN 260376, AF1 @ 8 μg/mL): <=0.25 μg/mL
MIC ATB in combination (KPN 270077, AF1 @ 4 μg/mL): 0.5 µg/mL
MIC ATB in combination (KPN 270077, AF1 @ 8 μg/mL): <=0.25 μg/mL
MIC ATB in combination (KPN 700603, AF1 @ 4 μg/mL): <=0.25 μg/mL
MIC ATB in combination (KPN 700603, AF1 @ 8 μg/mL): <=0.25 μg/mL
MIC ATB in combination (KPN ARA, AF1 @ 4 μg/mL): <=0.25 μg/mL
MIC ATB in combination (KPN ARA, AF1 @ 8 μg/mL): <=0.25 μg/mL
MIC ATB in combination (KPN BAA-1898, AF1 @ 4 μg/mL): <=0.25 μg/mL
MIC ATB in combination (KPN BAA-1898, AF1 @ 8 μg/mL): <=0.25 μg/mL
MIC ATB in combination (KPN LIB, AF1 @ 4 μg/mL): <=0.25 μg/mL
MIC ATB in combination (KPN LIB, AF1 @ 8 μg/mL): <=0.25 μg/mL
MIC ATB in combination (KPN UFR22_O, AF1 @ 4 μg/mL): <=0.25 μg/mL
MIC ATB in combination (KPN UFR22_O, AF1 @ 8 μg/mL): <=0.25 μg/mL
MIC ATB in combination (KPN UFR23, AF1 @ 4 μg/mL): <=0.25 μg/mL
MIC ATB in combination (KPN UFR23, AF1 @ 8 μg/mL): <=0.25 μg/mL
MIC ATB in combination (KPN UFR24, AF1 @ 4 μg/mL): 0.5 µg/mL
MIC ATB in combination (KPN UFR24, AF1 @ 8 μg/mL): 0.5 µg/mL
MIC ATB in combination (KPN UFR25, AF1 @ 4 μg/mL): <=0.25 μg/mL
MIC ATB in combination (KPN UFR25, AF1 @ 8 μg/mL): <=0.25 μg/mL
MIC ATB in combination (KPN UFR27, AF1 @ 4 μg/mL): 16 µg/mL
MIC ATB in combination (KPN UFR27, AF1 @ 8 μg/mL): 2 µg/mL
MIC ATB in combination (KPN UFR28, AF1 @ 4 μg/mL): <=0.25 μg/mL
MIC ATB in combination (KPN UFR28, AF1 @ 8 μg/mL): <=0.25 μg/mL
MIC ATB in combination (KPN UFR65, AF1 @ 4 μg/mL): <=0.25 μg/mL
MIC ATB in combination (KPN UFR65, AF1 @ 8 μg/mL): <=0.25 μg/mL
MIC ATB in combination (KPN UFR66, AF1 @ 4 μg/mL): 1 µg/mL
MIC ATB in combination (KPN UFR66, AF1 @ 8 μg/mL): 0.25 µg/mL
MIC ATB in combination (KPN UFR67, AF1 @ 4 μg/mL): 2 µg/mL
MIC ATB in combination (KPN UFR67, AF1 @ 8 μg/mL): 0.5 µg/mL
MIC ATB in combination (KPN UFR68, AF1 @ 4 μg/mL): 1 µg/mL
MIC ATB in combination (KPN UFR68, AF1 @ 8 μg/mL): 0.25 µg/mL
MIC ATB in combination (KPN UFR77, AF1 @ 4 μg/mL): 16 µg/mL
MIC ATB in combination (KPN UFR77, AF1 @ 8 μg/mL): 8 µg/mL
MIC ATB in combination (KPN UFR78, AF1 @ 4 μg/mL): 128 µg/mL
MIC ATB in combination (KPN UFR78, AF1 @ 8 μg/mL): 32 µg/mL
MIC ATB in combination (KPN UFR79, AF1 @ 4 μg/mL): 16 µg/mL
MIC ATB in combination (KPN UFR79, AF1 @ 8 μg/mL): 4 µg/mL
MIC ATB in combination (KPN UFR80, AF1 @ 4 μg/mL): <=0.25 μg/mL
MIC ATB in combination (KPN UFR80, AF1 @ 8 μg/mL): <=0.25 μg/mL
MIC ATB in combination (KPN UFR81, AF1 @ 4 μg/mL): 16 µg/mL
MIC ATB in combination (KPN UFR81, AF1 @ 8 μg/mL): 2 µg/mL
MIC ATB in combination (KPN UFR215, AF1 @ 4 μg/mL): <=0.25 μg/mL
MIC ATB in combination (KPN UFR215, AF1 @ 8 μg/mL): <=0.25 μg/mL
MIC ATB in combination (KPN UFR216, AF1 @ 4 μg/mL): <=0.25 μg/mL
MIC ATB in combination (KPN UFR216, AF1 @ 8 μg/mL): <=0.25 μg/mL
MIC ATB in combination (KPN UFR217, AF1 @ 4 μg/mL): <=0.25 μg/mL
MIC ATB in combination (KPN UFR217, AF1 @ 8 μg/mL): <=0.25 μg/mL
MIC ATB in combination (KPN UFR219, AF1 @ 4 μg/mL): <=0.25 μg/mL
MIC ATB in combination (KPN UFR219, AF1 @ 8 μg/mL): <=0.25 μg/mL
MIC ATB in combination (KPN UFR220, AF1 @ 4 μg/mL): 4 µg/mL
MIC ATB in combination (KPN UFR220, AF1 @ 8 μg/mL): 2 µg/mL
MIC ATB in combination (KPN UFR221, AF1 @ 4 μg/mL): 2 µg/mL
MIC ATB in combination (KPN UFR221, AF1 @ 8 μg/mL): <=0.25 μg/mL
MIC ATB in combination (KPN UFR222, AF1 @ 4 μg/mL): 32 µg/mL
MIC ATB in combination (KPN UFR222, AF1 @ 8 μg/mL): 16 µg/mL
MIC ATB in combination (KPN UFR227O, AF1 @ 4 μg/mL): 1 µg/mL
MIC ATB in combination (KPN UFR227O, AF1 @ 8 μg/mL): 0.5 µg/mL
MIC (BAA1898, strain KPN BAA-1898 (TEM-1, SHV-11, SHV-12, KPC-2), ATB alone): > 128 µg/mL
MIC (BAA1898, strain KPN BAA-1898 (TEM-1, SHV-11, SHV-12, KPC-2), CLA @ 4 μg/ml+ ATB): 64 µg/mL
MIC (KPN 110376, alone): > 128 µg/mL
MIC (KPN 131119, alone): > 128 µg/mL
MIC (KPN 190270, alone): > 128 µg/mL
MIC (KPN UFR25, alone): > 128 µg/mL
MIC (KPN UFR66, alone): 512 µg/mL
MIC (KPN UFR68, alone): > 128 µg/mL
MIC (strain KPN 6299 (TEM-1, SHV-11, OXA-163), ATB alone): 8 µg/mL
MIC (strain KPN 6299 (TEM-1, SHV-11, OXA-163), CLA @ 4 μg/ml+ ATB): 8 µg/mL
MIC (strain KPN 110376 (TEM-1, SHV-1, CTX-M-15, OXA-1, OXA-48), ATB alone): > 128 µg/mL
MIC (strain KPN 110376 (TEM-1, SHV-1, CTX-M-15, OXA-1, OXA-48), CLA @ 4 μg/ml+ ATB): 128 µg/mL
MIC (strain KPN 131119 (TEM-1, SHV-11, CTX-M-15, OXA-1, OXA-48), ATB alone): > 128 µg/mL
MIC (strain KPN 131119 (TEM-1, SHV-11, CTX-M-15, OXA-1, OXA-48), CLA @ 4 μg/ml+ ATB): > 128 µg/mL
MIC (strain KPN 140513 (TEM-1, SHV-11, CTX-M-15, KPC-3), ATB alone): > 128 µg/mL
MIC (strain KPN 140513 (TEM-1, SHV-11, CTX-M-15, KPC-3), CLA @ 4 μg/ml+ ATB): > 128 µg/mL
MIC (strain KPN 160143 (TEM-1, SHV-1, CTX-M-15, KPC-2, OXA-1), ATB alone): > 128 µg/mL
MIC (strain KPN 160143 (TEM-1, SHV-1, CTX-M-15, KPC-2, OXA-1), CLA @ 4 μg/ml+ ATB): 2 µg/mL
MIC (strain KPN 190128 (TEM-1, SHV-32, CTX-M-15, OXA-1), ATB alone): > 128 µg/mL
MIC (strain KPN 190128 (TEM-1, SHV-32, CTX-M-15, OXA-1), CLA @ 4 μg/ml+ ATB): 0.5 µg/mL
MIC (strain KPN 190270 (TEM-1, SHV-76, CTX-M-15, OXA-1), ATB alone): > 128 µg/mL
MIC (strain KPN 190270 (TEM-1, SHV-76, CTX-M-15, OXA-1), CLA @ 4 μg/ml+ ATB): 1 µg/mL
MIC (strain KPN 190425 (TEM-1, SHV-1, CTX-M-15, OXA-1), ATB alone): > 128 µg/mL
MIC (strain KPN 190425 (TEM-1, SHV-1, CTX-M-15, OXA-1), CLA @ 4 μg/ml+ ATB): ≤ 0.25 µg/mL
MIC (strain KPN 190551 (TEM-1, SHV-1, CTX-M-15, OXA-1), ATB alone): > 128 µg/mL
MIC (strain KPN 190551 (TEM-1, SHV-1, CTX-M-15, OXA-1), CLA @ 4 μg/ml+ ATB): ≤ 0.25 µg/mL
